Test results taken from the supplement of paper PMC10307832.

How the values were obtained:
Test in all cases: relative viability (nuclei count vs DMSO), 5 days (fraction); higher = more cells survive
Imatinib + Luminespib = compound: Cc1ccc(NC(=O)c2ccc(CN3CCN(C)CC3)cc2)cc1Nc1nccc(-c2cccnc2)n1 [Imatinib] + CCNC(=O)c1noc(-c2cc(C(C)C)c(O)cc2O)c1-c1ccc(CN2CCOCC2)cc1 [Luminespib] (partner 0.01 µM)
In short: (§1)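 For relative viability, nuclei counts in treated wells were divided by those in vehicle wells. Lung cancer cell lines had been pin-tool dosed in 1536-well plates the day after seeding and cultured for 5 days, then fixed and stained in one step (final 0.05% Triton X-100, 1% formaldehyde, 1 ug/ml Hoechst) and imaged at 4×. Doses were one drug alone or a fixed anchor-drug dose plus five library-drug doses (not always all listed) in √10 steps, and values are duplicate-plate medians.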

Imatinib + OSI-027 = compound: Cc1ccc(NC(=O)c2ccc(CN3CCN(C)CC3)cc2)cc1Nc1nccc(-c2cccnc2)n1 [Imatinib] + COc1cccc2cc(-c3nc([C@H]4CC[C@H](C(=O)O)CC4)n4ncnc(N)c34)[nH]c12 [OSI-027] (partner 0.5 µM)
In short: as §1

Imatinib + AZD7762 = compound: Cc1ccc(NC(=O)c2ccc(CN3CCN(C)CC3)cc2)cc1Nc1nccc(-c2cccnc2)n1 [Imatinib] + NC(=O)Nc1cc(-c2cccc(F)c2)sc1C(=O)N[C@H]1CCCNC1 [AZD7762] (partner 0.2 µM)
In short: as §1

Imatinib + Decitabine = compound: Cc1ccc(NC(=O)c2ccc(CN3CCN(C)CC3)cc2)cc1Nc1nccc(-c2cccnc2)n1 [Imatinib] + Nc1ncn([C@H]2C[C@H](O)[C@@H](CO)O2)c(=O)n1 [Decitabine] (partner 2 µM)
In short: as §1

Cell Line | relative viability (Imatinib + Luminespib; first compound 0.02 µM) | relative viability (Imatinib + Luminespib; first compound 0.06325 µM) | relative viability (Imatinib + Luminespib; first compound 0.2 µM) | relative viability (Imatinib + Luminespib; first compound 0.6325 µM) | relative viability (Imatinib + Luminespib; first compound 2 µM) | relative viability (Imatinib + OSI-027; first compound 0.02 µM) | relative viability (Imatinib + OSI-027; first compound 0.06325 µM) | relative viability (Imatinib + OSI-027; first compound 0.2 µM) | relative viability (Imatinib + OSI-027; first compound 0.6325 µM) | relative viability (Imatinib + OSI-027; first compound 2 µM) | relative viability (Imatinib + AZD7762; first compound 0.02 µM) | relative viability (Imatinib + AZD7762; first compound 0.06325 µM) | relative viability (Imatinib + AZD7762; first compound 0.2 µM) | relative viability (Imatinib + AZD7762; first compound 0.6325 µM) | relative viability (Imatinib + AZD7762; first compound 2 µM) | relative viability (Imatinib + Decitabine; first compound 0.02 µM) | relative viability (Imatinib + Decitabine; first compound 0.06325 µM) | relative viability (Imatinib + Decitabine; first compound 0.2 µM) | relative viability (Imatinib + Decitabine; first compound 0.6325 µM) | relative viability (Imatinib + Decitabine; first compound 2 µM)
LOU-NH91 | 0.319 | 0.35 | 0.361 | 0.347 | 0.303 | 0.759 | 0.708 | 0.745 | 0.699 | 0.658 | 0.784 | 0.829 | 0.81 | 0.809 | 0.749 | 0.793 | 0.814 | 0.795 | 0.813 | 0.767
RERF-LC-KJ | 1.27 | 1.3 | 1.3 | 1.03 | 1.31 | 0.598 | 0.418 | 0.544 | 0.492 | 0.551 | 1.01 | 0.523 | 1.19 | 0.88 | 0.967 | 0.755 | 0.558 | 0.655 | – | 0.754
NCI-H647 | 0.198 | 0.121 | 0.134 | 0.119 | 0.146 | 0.621 | 0.693 | 0.704 | 0.626 | 0.562 | 0.708 | 0.519 | 0.383 | 0.383 | 0.381 | 0.454 | 0.432 | 0.421 | 0.366 | 0.37
LCLC-103H | 1.03 | 0.8 | 1.04 | 0.892 | 0.863 | 0.453 | 0.375 | 0.548 | 0.415 | 0.433 | 0.809 | 0.779 | 0.876 | 0.695 | 0.781 | 0.717 | 0.741 | 0.767 | 0.74 | 0.754
NCI-H1975 | 0.254 | 0.191 | 0.201 | 0.178 | 0.274 | 0.843 | 0.772 | 0.827 | 0.579 | 0.549 | 0.754 | 0.701 | 0.646 | 0.652 | 0.646 | 0.365 | 0.373 | 0.369 | 0.38 | 0.365
EPLC-272H | 0.312 | – | 0.456 | 0.306 | 0.14 | 0.265 | – | 0.273 | 0.311 | 0.249 | 0.218 | – | – | 0.156 | 0.15 | 0.327 | – | – | 0.408 | 0.33
ChaGo-K-1 | 0.585 | 0.592 | 0.603 | 0.624 | 0.56 | 0.444 | 0.511 | 0.538 | 0.56 | 0.491 | 0.979 | – | 0.941 | 0.791 | 0.943 | 0.525 | – | 0.534 | 0.503 | 0.503
NCI-H1734 | 0.194 | 0.204 | 0.181 | 0.177 | 0.233 | 0.656 | 0.54 | 0.64 | 0.609 | 0.5 | 0.673 | – | 0.516 | 0.48 | 0.484 | 0.522 | – | 0.573 | 0.486 | 0.533
NCI-H1755 | 0.402 | 0.371 | 0.273 | 0.454 | 0.418 | 0.748 | 0.554 | 0.829 | 0.634 | 0.594 | 0.451 | 0.458 | 0.413 | 0.421 | 0.434 | 0.689 | 0.693 | 0.702 | 0.708 | 0.69
NCI-H2087 | 0.205 | – | 0.155 | 0.159 | 0.25 | 0.601 | – | 0.643 | 0.618 | 0.572 | 1.33 | – | 1.58 | 1.35 | – | 0.291 | – | 0.251 | 0.283 | –
EMC-BAC-2 | 1.25 | 1.5 | 1.36 | 1.14 | – | 0.378 | 0.338 | 0.39 | 0.399 | 0.364 | 1.21 | 1.3 | 1.19 | 1.21 | 1.11 | 0.998 | 1.04 | – | 1.07 | 0.936
NCI-H2170 | 0.901 | 0.395 | 0.526 | 0.502 | 0.735 | 0.67 | 0.602 | 0.769 | 0.584 | 0.625 | 0.94 | 0.77 | 0.86 | 0.745 | 0.773 | 0.463 | 0.492 | 0.486 | 0.454 | 0.458
NCI-H23 | 0.248 | 0.225 | 0.221 | 0.185 | 0.189 | 0.62 | 0.606 | 0.551 | 0.598 | 0.496 | 0.27 | 0.285 | 0.23 | 0.203 | 0.21 | 0.319 | 0.31 | 0.299 | 0.287 | 0.355
HCC-44 | 1.24 | 0.552 | – | 0.959 | – | 0.484 | 0.422 | 0.437 | 0.466 | 0.461 | – | – | 1.13 | 1.01 | 0.968 | 0.967 | – | 0.954 | 0.971 | 0.899
HCC-827 | – | 0.322 | 0.807 | 0.545 | 0.729 | – | 0.732 | 0.937 | 0.705 | 0.824 | 0.189 | 0.215 | 0.195 | 0.17 | 0.157 | 0.31 | 0.32 | 0.311 | 0.36 | 0.307
NCI-H1915 | 1.1 | – | 0.694 | 0.637 | 0.766 | 0.61 | – | 0.67 | 0.6 | 0.599 | 0.705 | – | 0.781 | 0.659 | 0.665 | 0.257 | – | 0.281 | 0.276 | 0.243
NCI-H1437 | 1.25 | 1.18 | 1.28 | 1.22 | 1.08 | 0.998 | 0.945 | – | 0.911 | 0.891 | 1.24 | 1.07 | 1.09 | 1.04 | 1.14 | 0.587 | 0.664 | 0.597 | 0.629 | 0.578
